Here are results for 26 compounds from ChEMBL document CHEMBL1153803, “Parallel synthesis of chiral pentaamines and pyrrolidine containing bis-heterocyclic libraries. Multiple scaffolds with multiple building blocks: a double diversity for the identification of new antitubercular compounds” (Bioorg Med Chem Lett, 2009).

≈ marks a conversion by molar mass, not a printed value.

For assay [1], the system named is Mycobacterium tuberculosis. Briefly: Antimicrobial activity against Mycobacterium tuberculosis H37Rv ATCC 27294 at 6.25 ug/mL by broth microdilution assay. In kind it is functional.
For assay [2], the system named is Mycobacterium tuberculosis. Description: Antimicrobial activity against Mycobacterium tuberculosis H37Rv ATCC 27294 by microplate Almar blue assay. It is filed as functional. The following applies: Mycobacterium tuberculosis, H37Rv ATCC 27294; read-out: MIC.
For assay [3], the system named is Vero. Briefly: Cytotoxicity against african green monkey Vero cells at after 72 hrs by MTT assay. In kind it is cell-based, Chlorocebus sabaeus. The settings on record: Chlorocebus sabaeus, Vero, 72 h; read-out: IC50.
A short description of assay [4]: Selective index, the ratio of IC50 in the african green monkey Vero cells to the MIC to Mycobacterium tuberculosis H37Rv ATCC 27294. In kind it is functional.

On to `c1ccc(CCN2CCN([C@H](Cc3ccc4ccccc4c3)CN3CCCC3CN3CCNC[C@@H]3Cc3ccccc3)C[C@@H]2Cc2ccccc2)cc1` (some centres undefined), for which at 6.25 µg/mL the inhibition in assay [1] was 100%. Further, the MIC in assay [2] stood at 3.9 µg/mL (≈ 5.52 µM). Moreover, the IC50 in assay [3] was 1.06 µg/mL (≈ 1.5 µM). In assay [4], the “Selectivity Index” value came to 0.27.
`Fc1ccc(CCN2CCN([C@@H](Cc3ccccc3)CN3CCCC3CN3CCNC[C@@H]3Cc3ccccc3)C[C@@H]2Cc2ccccc2)cc1` (some centres undefined) came in with an inhibition at 6.25 µg/mL in assay [1] of 98%. Besides, in assay [2], the minimal inhibitory concentration (MIC) was found to be 3.9 µg/mL (≈ 5.79 µM). Besides, the IC50 in assay [3] was found to be 1.05 µg/mL (≈ 1.56 µM). In addition, the “Selectivity Index” value in assay [4] is listed as 0.27.
In turn, `Clc1ccc(CCN2CCN([C@@H](Cc3ccccc3)CN3CCCC3CN3CCNC[C@@H]3Cc3ccccc3)C[C@@H]2Cc2ccccc2)cc1Cl` (some centres undefined) had an inhibition at 6.25 µg/mL in assay [1] of 99%. Also, the MIC in assay [2] worked out at 3.9 µg/mL (≈ 5.38 µM). The IC50 in assay [3] was 1.07 µg/mL (≈ 1.48 µM). Moreover, the “Selectivity Index” value in assay [4] is listed as 0.27.
In assay [1], `CC(C)[C@@H](CN1CCCC1CN1CCNC[C@@H]1Cc1ccccc1)N1CCN(CCc2ccccc2)[C@@H](Cc2ccccc2)C1` (some centres undefined) registered an inhibition at 6.25 µg/mL of 100%. In addition, the MIC in assay [2] stood at 3.9 µg/mL (≈ 6.42 µM). Further, the IC50 in assay [3] was 1 µg/mL (≈ 1.64 µM). For the same compound, in assay [4], the “Selectivity Index” value is 0.26.
With `CCCC[C@@H](CN1CCCC1CN1CCNC[C@@H]1Cc1ccccc1)N1CCN(CCc2ccccc2)[C@@H](Cc2ccccc2)C1` (some centres undefined), at 6.25 µg/mL the inhibition in assay [1] was 100%. The MIC in assay [2] amounted to 3.9 µg/mL (≈ 6.27 µM). In assay [3], the half-maximal inhibitory concentration (IC50) is 1 µg/mL (≈ 1.61 µM). For the same compound, in assay [4], the “Selectivity Index” value is 0.26.
The like results for `c1ccc(CCN2CCN([C@@H](Cc3ccc4ccccc4c3)CN3CCCC3CN3CCNC[C@@H]3Cc3ccccc3)C[C@@H]2Cc2ccccc2)cc1` (some centres undefined) were, in that order, 100%, 3.9 µg/mL (≈ 5.52 µM), 1 µg/mL (≈ 1.42 µM) and 0.26.
For the compound `CCOc1ccc(CCN2CCN([C@@H](Cc3ccccc3)CN3CCCC3CN3CCNC[C@@H]3Cc3ccccc3)C[C@@H]2Cc2ccccc2)cc1` (some centres undefined), testing at 6.25 µg/mL in assay [1] gave an inhibition of 98%. Besides, in assay [2], the MIC was 3.9 µg/mL (≈ 5.57 µM). For the same compound, in assay [3], the half-maximal inhibitory concentration (IC50) amounted to 1.03 µg/mL (≈ 1.47 µM). The “Selectivity Index” value in assay [4] came out at 0.26.
As to `CCCCCCCN1CCN([C@@H](Cc2ccccc2)CN2CCCC2CN2CCNC[C@@H]2Cc2ccccc2)C[C@@H]1Cc1ccccc1` (some centres undefined), in assay [1], the inhibition at 6.25 µg/mL came out at 99%. In addition, the minimum inhibitory concentration (MIC) in assay [2] turned out to be 3.9 µg/mL (≈ 6 µM). The IC50 in assay [3] was determined as 1.03 µg/mL (≈ 1.58 µM). The “Selectivity Index” value in assay [4] is reported as 0.26.
Regarding `CCC(C)CCN1CCN([C@@H](Cc2ccccc2)CN2CCCC2CN2CCNC[C@@H]2Cc2ccccc2)C[C@@H]1Cc1ccccc1` (some centres undefined), the inhibition at 6.25 µg/mL in assay [1] was 96%. Further, the MIC in assay [2] was found to be 3.9 µg/mL (≈ 6.13 µM). Further, the 50% inhibitory concentration (IC50) in assay [3] amounted to 1 µg/mL (≈ 1.57 µM). In addition, the “Selectivity Index” value in assay [4] is recorded as 0.26.
On to `c1ccc(C[C@H]2CNCCN2CC2CCCN2C[C@H](Cc2ccccc2)N2CCN(CCc3ccc(-c4ccccc4)cc3)[C@@H](Cc3ccccc3)C2)cc1` (some centres undefined), for which, in assay [1], the inhibition at 6.25 µg/mL is 97%. Besides, in assay [2], the minimal inhibitory concentration (MIC) turned out to be 3.9 µg/mL (≈ 5.33 µM). For the same compound, in assay [3], the IC50 was found to be 1 µg/mL (≈ 1.37 µM). For the same compound, the “Selectivity Index” value in assay [4] came to 0.26.
For `CC(C)C[C@@H](CN1CCCC1CN1CCNC[C@@H]1Cc1ccccc1)N1CCN(CCc2ccccc2)[C@@H](Cc2ccccc2)C1` (some centres undefined) the same measures were 100%, 3.9 µg/mL (≈ 6.27 µM), 0.99 µg/mL (≈ 1.59 µM) and 0.25.
`c1ccc(CCN2CCN([C@@H](Cc3ccccc3)CN3CCCC3CN3CCNC[C@@H]3Cc3ccccc3)C[C@H]2CC2CCCCC2)cc1` (some centres undefined) yielded an inhibition at 6.25 µg/mL in assay [1] of 98%. For the same compound, in assay [2], the minimal inhibitory concentration (MIC) worked out at 3.9 µg/mL (≈ 5.89 µM). Further, in assay [3], the concentration for half-maximal inhibition (IC50) was 0.97 µg/mL (≈ 1.47 µM). Also, in assay [4], the “Selectivity Index” value is listed as 0.25.
Turning to `c1ccc(CCN2CCN([C@H](CC3CCCCC3)CN3CCCC3CN3CCNC[C@@H]3Cc3ccccc3)C[C@@H]2Cc2ccccc2)cc1` (some centres undefined), in assay [1], the inhibition at 6.25 µg/mL came to 98%. In addition, the minimal inhibitory concentration (MIC) in assay [2] is 3.9 µg/mL (≈ 5.89 µM). Further, the IC50 in assay [3] stood at 0.92 µg/mL (≈ 1.39 µM). In addition, in assay [4], the “Selectivity Index” value was 0.24.
Turning to `c1ccc(C[C@H]2CNCCN2CC2CCCN2C[C@H](Cc2ccccc2)N2CCN(CC3(c4ccccc4)CC3)[C@@H](Cc3ccccc3)C2)cc1` (some centres undefined), 6.25 µg/mL produced 99% inhibition in assay [1]. Also, the MIC in assay [2] stood at 3.9 µg/mL (≈ 5.72 µM). Also, the half-inhibitory concentration (IC50) in assay [3] is 0.94 µg/mL (≈ 1.38 µM). In addition, in assay [4], the “Selectivity Index” value stood at 0.24.
Turning to `Cc1ccc(CN2CCN([C@@H](Cc3ccccc3)CN3CCCC3CN3CCNC[C@@H]3Cc3ccccc3)C[C@@H]2Cc2ccccc2)cc1` (some centres undefined), testing at 6.25 µg/mL in assay [1] gave an inhibition of 98%. In assay [2], the MIC stood at 3.9 µg/mL (≈ 5.95 µM). Moreover, the half-maximal inhibitory concentration (IC50) in assay [3] is 0.88 µg/mL (≈ 1.34 µM). Further, the “Selectivity Index” value in assay [4] is reported as 0.23.
Compound `CC(CCN1CCN([C@@H](Cc2ccccc2)CN2CCCC2CN2CCNC[C@@H]2Cc2ccccc2)C[C@@H]1Cc1ccccc1)c1ccccc1` (some centres undefined) showed an inhibition at 6.25 µg/mL in assay [1] of 99%. In addition, the MIC in assay [2] turned out to be 3.9 µg/mL (≈ 5.7 µM). Further, the IC50 in assay [3] came to 0.87 µg/mL (≈ 1.27 µM). Besides, the “Selectivity Index” value in assay [4] was determined as 0.22.
For `c1ccc(CCN2CCN([C@@H](Cc3ccccc3)CN3CCCC3CN3CCNC[C@H]3Cc3ccccc3)C[C@@H]2Cc2ccccc2)cc1` (some centres undefined) the same measures were 99%, 3.9 µg/mL (≈ 5.95 µM), 0.86 µg/mL (≈ 1.31 µM) and 0.22.
For `c1ccc(C[C@H]2CNCCN2CC2CCCN2C[C@H](Cc2ccccc2)N2CCN(CCC3CC4CCC3C4)[C@@H](Cc3ccccc3)C2)cc1` (some centres undefined) the same measures were 97%, 3.9 µg/mL (≈ 5.79 µM), 0.87 µg/mL (≈ 1.29 µM) and 0.22.
`c1ccc(CCN2CCN([C@@H](Cc3ccccc3)CN3CCCC3CN3CCNC[C@@H]3Cc3ccccc3)C[C@@H]2CC2CCCCC2)cc1` (some centres undefined) displayed an inhibition at 6.25 µg/mL in assay [1] of 99%. The minimal inhibitory concentration (MIC) in assay [2] came to 3.9 µg/mL (≈ 5.89 µM). Also, the concentration for half-maximal inhibition (IC50) in assay [3] was found to be 0.82 µg/mL (≈ 1.24 µM). Moreover, the “Selectivity Index” value in assay [4] came to 0.21.
With `Fc1cccc(CCN2CCN([C@@H](Cc3ccccc3)CN3CCCC3CN3CCNC[C@@H]3Cc3ccccc3)C[C@@H]2Cc2ccccc2)c1` (some centres undefined), testing at 6.25 µg/mL in assay [1] gave an inhibition of 98%. For the same compound, the minimum inhibitory concentration (MIC) in assay [2] was 3.9 µg/mL (≈ 5.79 µM). In addition, the concentration for half-maximal inhibition (IC50) in assay [3] came out at 0.8 µg/mL (≈ 1.19 µM). Further, the “Selectivity Index” value in assay [4] worked out at 0.21.
In the case of `CCC(C)CN1CCN([C@@H](Cc2ccccc2)CN2CCCC2CN2CCNC[C@@H]2Cc2ccccc2)C[C@@H]1Cc1ccccc1` (some centres undefined), the inhibition at 6.25 µg/mL in assay [1] worked out at 97%. Further, the MIC in assay [2] turned out to be 3.9 µg/mL (≈ 6.27 µM). Further, in assay [3], the IC50 is 0.7 µg/mL (≈ 1.13 µM). The “Selectivity Index” value in assay [4] is listed as 0.18.
Regarding `c1ccc(C[C@H]2CNCCN2CC2CCCN2C[C@H](Cc2ccccc2)N2CCN(CC3CCCCC3)[C@@H](Cc3ccccc3)C2)cc1` (some centres undefined), the inhibition at 6.25 µg/mL in assay [1] was determined as 100%. Besides, the minimum inhibitory concentration (MIC) in assay [2] is 3.9 µg/mL (≈ 6.02 µM). In assay [3], the half-maximal inhibitory concentration (IC50) was found to be 0.71 µg/mL (≈ 1.1 µM). The “Selectivity Index” value in assay [4] is listed as 0.18.
`c1ccc(C[C@H]2CNCCN2CC2CCCN2C[C@H](Cc2ccccc2)N2CCN(CCC3CCCCC3)[C@@H](Cc3ccccc3)C2)cc1` (some centres undefined): in assay [1], the inhibition at 6.25 µg/mL was determined as 99%. Further, the minimal inhibitory concentration (MIC) in assay [2] was found to be 3.9 µg/mL (≈ 5.89 µM). Besides, the IC50 in assay [3] was found to be 0.62 µg/mL (≈ 0.937 µM). For the same compound, the “Selectivity Index” value in assay [4] came out at 0.16.
For the compound `c1ccc(C[C@H]2CNCCN2CC2CCCN2C[C@H](Cc2ccccc2)N2CCN(CCCC3CCCC3)[C@@H](Cc3ccccc3)C2)cc1` (some centres undefined), in assay [1], the inhibition at 6.25 µg/mL is 100%. Besides, the minimal inhibitory concentration (MIC) in assay [2] amounted to 3.9 µg/mL (≈ 5.89 µM). Besides, the IC50 in assay [3] worked out at 0.42 µg/mL (≈ 0.634 µM). In addition, in assay [4], the “Selectivity Index” value was 0.11.
For the compound `COc1cccc(CCN2CCN([C@@H](Cc3ccccc3)CN3CCCC3CN3CCNC[C@@H]3Cc3ccccc3)C[C@@H]2Cc2ccccc2)c1` (some centres undefined), at 6.25 µg/mL the inhibition in assay [1] was 99%. Also, the minimal inhibitory concentration (MIC) in assay [2] stood at 3.9 µg/mL (≈ 5.69 µM). Further, the 50% inhibitory concentration (IC50) in assay [3] was 0.32 µg/mL (≈ 0.466 µM). The “Selectivity Index” value in assay [4] is recorded as 0.08.
On to `COc1ccc(CCN2CCN([C@@H](Cc3ccccc3)CN3CCCC3CN3CCNC[C@@H]3Cc3ccccc3)C[C@@H]2Cc2ccccc2)cc1` (some centres undefined), for which testing at 6.25 µg/mL in assay [1] gave an inhibition of 99%. Besides, in assay [2], the MIC is 3.9 µg/mL (≈ 5.69 µM). Further, in assay [3], the 50% inhibitory concentration (IC50) is 0.33 µg/mL (≈ 0.481 µM). In addition, the “Selectivity Index” value in assay [4] amounted to 0.08.
